Test results published in US11911464B2, “Anti-parasitic immunological compositions” (Prommune, Inc., priority 2018, dated 2024).
Non-standard residues stand in square brackets, D forms with d. No end group written: not given here. NMeL = CN[C@@H](CC(C)C)C(=O)O

B1: recombinant C5a: the complement protein from which the sequence of EP67 is derived (protein, UniProt P01031 678-751, looked up)
C5a anaphylatoxin: TLQKKIEEIAAKYKHSVVKKCCYDGACVNNDETCEQRAARISLGPRCIKAFTECCVVASQLRANISHKDMQLGR
modifications: C5a anaphylatoxin

Assays:
[1] = test system: human monocytes; assay: Differentiation of human peripheral blood monocytes (morphology); assay type: cell-based; settings: 50 μg/ml, 48 hrs
Description: EP67 Differentiates Human Peripheral Blood Monocytes to Cells with Phenotypes Characteristic of Macrophages/DCs.

[2] = test system: human monocyte-derived macrophages and DCs; assay: Cytokine release from human macrophages and DCs; assay type: cell-based; settings: 50 μg/ml, after 24 hours of incubation
Procedure: Human monocyte-derived macrophages and DCs were incubated with EP67 (50 μg/ml) and scrambled EP67 (50 μg/ml) for 6 and 24 hours. Supernatants were collected and analyzed for the presence of the following cytokines: IL-1beta, IL-2, IL-4, IL-6, IL-10, IL-12p70, IL-13, IL-15, TNF-alpha, and IFN-gamma. […] It is worth noting that the prominent cytokines released at 6 and 24 hours in response to EP67 (IL-1beta, IL-2, IL-6, and TNF-alpha) represent a TH1/pro-inflammatory bias relative to the TH2/anti-inflammatory cytokines (IL-4, IL-5, IL-10, and IL-13). This TH1 bias is in keeping with earlier observations with EP67 and is an important immunologic component for an effective immune response to T. gondii.

[3] = test system: bone marrow-derived BALB/c DCs; assay: Murine dendritic cell activation (cytokine release) by EP67 vaccines; assay type: cell-based, mouse; settings: 6 hr exposure
Description: A subset of vaccines were developed with murine DC's from BALB/c bone marrow, and examined for cytokine response. […] Bone marrow-derived BALB/c DCs were separately exposed to EP67-containing vaccines #1 (TgSAG1) and #2 (TgGRA1) (Example 3), and compared to sham exposure (media). […] KC/GRO, also known as CXCL1, is a potent neutrophil chemotactic cytokine. Increases in INF-gamma, IL-1b, and TNF-α were also observed, and are in-line with expectations of EP67 engagement of the C5a receptor and subsequent activation of dendritic cells.

[4] = test system: DCs; assay: Surface activation markers of exposed dendritic cells by flow cytometry; assay type: cell-based, mouse; settings: 6 hours exposure
Procedure: […] vaccines were investigated and found to increase surface activation markers of exposed white blood cells, such as DCs shown in FIG. 10, which were exposed for 6 hours to Vaccines #1 (TgSAG1) and #2 (TgGRA1). Following exposure, cells were fixed and stained with antibodies to measure cell surface markers of intact cells by flow cytometry.

[5] = test system: human monocytes and monocyte-derived dendritic cells; assay: Multiplex cytokine release from human monocytes and monocyte-derived dendritic cells (EP67 analogues); assay type: cell-based; settings: 50 μg/ml, 6 and 24 hours
Description: Cytokine Analysis. Considerable time was spent in learning the methods for the rapid, efficient, and high throughput method of cytokine analysis using a multiplex instrument for large panels of cytokines (MesoScale QuickPlex SQ 120). With this instrument, we tested the EP67- and analogue-mediated release of a pro-inflammatory and anti-inflammatory panel of cytokines (IL-1beta, IL-2, IL-4, IL-6, IL-10, IL-12p70, IL-13, IL-15, TNF-α, and IFN-gamma) from human monocytes and monocyte-derived dendritic cells over the course of 6 and 24 hours of exposure 50 μg/ml EP67, scrambled EP67 (scEP67), and EP67 analogues (EP144, EP146, and EP147).

[6] = test system: bone marrow-derived mouse dendritic cells; assay: qPCR detection of cytokine expression following exposure to EP67; assay type: cell-based; settings: EP67 50 μg/ml, 24 hrs, vs PBS controls, normalized to Actin B
Procedure: Free EP67 (unattached to any epitope) was used as a control to stimulate murine bone marrow-derived dendritic cells (See Table 1 below). […] Testing these and additional cytokines (at the gene and protein-expression levels) against all of the synthesized and control vaccines is carried out. Similarly, we will also be analyzing surface marker expression indicative of DC activation.
EP67 (50 μg/ml) was incubated with bone marrow-derived mouse dendritic cells (24 hrs) following in vitro maturation. Fold changes in expression were compared to PBS controls and normalized to Actin B gene expression. Three replicates were analyzed per gene. […] A positive control, bacterial LPS, was also evaluated and produced upregulation of at least 20-fold above PBS controls for all evaluated cytokines.

[7] = test system: human monocytes; assay: Surface marker immunophenotype of human monocytes incubated with EP67; assay type: cell-based; settings: 50 μg/ml, over 7 days
Procedure: EP67 Differentiates Human Peripheral Blood Monocytes to Cells with Immunophenotypes Characteristic of Macrophages/DCs. Human monocytes were incubated with EP67 (50 μg/ml) and surface markers analyzed over the course of 7 days.

[8] = test system: murine splenocytes; assay: Cytokine release from murine splenocytes; assay type: cell-based, mouse; settings: 50 μg/ml
Procedure: Splencocytes were obtained from normal Balb/c mice (ca. 2 months) and aged (ca. 17 months) sentinel mice of undetermined background (a gift from the University of Nebraska Medical Center Animal Facility). Spelocytes were cultured in the presence of EP67 and scrambled EP67 (50 μg/ml) for 24 hours, supernatants harvested, and analyzed for the presence of IL-1beta, IL-2, IL-4, IL-5, IL-6, KC/GRO, IL-10, IL-12p70, TNF-alpha, and IFN-gamma. […] Splenocytes were not our original choice of APCs from mice to evaluate the effects of EP67/EP67-based vaccines, but they were chosen for this first assessment as a matter of convenience to help with getting our cell culture protocols and assays established and verified.

[9] = test system: RAW 264.7 cells; assay: TNF-alpha and IL-6 secretion from RAW 264.7 cells; assay type: cell-based, mouse; settings: 6 hr and 24 hr exposures
Procedure: Although murine work was achieved using commercially available BALB/c cells, we felt it useful to explore additional cell options for in vitro evaluation of EP67 vaccine candidates. […] FIGS. 13A and 13B show the results of RAW 264.7 cells activated by EP67. In order to evaluate a cell line that is responsive to both EP67 and C5a (the complement protein from which the sequence of EP67 is derived), RAW 264.7 were tested for secretion of TNF-a and IL-6. For both cytokines, supernatants from both 6 hr and 24 hr exposures of recombinant C5a were high.

Molecule	conversion of monocytes into elongated, adhered macrophage/DC-like cells [1]	release of IL-1beta, IL-2, IL-6, IFN-gamma, and TNF-alpha [2]	INF-gamma, IL-1b, and TNF-α release [3]	cytokine release compared to sham (media) [3]	CD80, CCR7, and MHC Class II molecules compared to control (media only) [4]	secretion of TNF-a and IL-6 [9]	also measured
(MeL)RMYKPaFDS ([NMeL]RMYKP[dA]FDS) [scrmbEP67, reference compound]	not	not					
EEVIDTMKSMQRDEERRYSFKDMP(MeL)aR (EEVIDTMKSMQRDEERRYSFKDMP[NMeL][dA]R; not fully specified; printed as EEVIDTMKSMQRDEERRYSFKDMP(MeL)aR) [Vaccine 2]			Increases	cytokine release above the controls	Elevation occurred		CD80 increase compared to control (media only) [4]: > 80%
SFKDILPKLSENPWQRRYSFKDMP(MeL)aR (SFKDILPKLSENPWQRRYSFKDMP[NMeL][dA]R; not fully specified; printed as SFKDILPKLSENPWQRRYSFKDMP(MeL)aR) [Vaccine 1]			Increases	cytokine release above the controls	Elevation occurred		
YSFKDM(Cha)LaR [EP147]							cytokine release (pro- and anti-inflammatory panel) [5]: increase in cytokine release
YSFKDMP(MeL)aR (YSFKDMP[NMeL][dA]R; not fully specified; printed as YSFKDMP(MeL)aR) [EP67]	converts rounded and non-adhered monocytes into elongated, adhered cells	induced the release				statistically significant (p<0.05) increases	Fold change CXCL1 (a.k.a. KC) expression [6]: 1.61 fold; Fold change IL-6 expression [6]: 3.40 fold; Fold change IL-10 expression [6]: 4.13 fold; Fold change TNF alpha expression [6]: 2.14 fold; expression of CD14, CD16, CD11b, and CD33 [7]: moderately enhanced; expression of CD80 and CD206 [7]: significantly enhanced; cytokine release relative to controls, aged sentinel mice splenocytes ([8]; aged ca. 17 months): more pronounced effect; cytokine release relative to controls, Balb/c splenocytes ([8]; normal Balb/c mice ca. 2 months): little effect
B1						high	
